Where two headings read alike, the source gives them in different places.
What was measured:
EGFR[T790M/C797S/L858R] = biological target: T1, EGFR[T790M/C797S/L858R] (Homo sapiens, UniProt P00533, C797S/L858R/T790M); test: Inhibition of EGFR[T790M/C797S/L858R] biochemical enzymatic activity (HTRF); conditions: EGFR T790M-C797S-L858R, 1 mM ATP, 1 h, room temperature, read-out: IC50 (nM) @T790M- C797S - L858R
T1 construct: purchased Carna Bio
Method in brief: (§1)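 In a buffer with 5 mM MgCl2, 1 mM MnCl2, 1 mM DTT and 0.01% CHAPS, enzyme turnover of 1 μM biotinylated TK substrate at 1 mM ATP is followed by HTRF after 1 h at room temperature. IC50 is obtained by a four-parameter fit.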

EGFR L858R = biological target: T2, EGFR L858R (Homo sapiens, UniProt P00533, L858R); test: Inhibition of EGFR L858R biochemical enzymatic activity (HTRF); conditions: 1 mM ATP, 1 h, room temperature, read-out: IC50 (nM) @L858R
T2 construct: purchased Carna Bio
Method in brief: as §1

EGFR Exon19Del/T790M = biological target: T3, EGFR Exon19Del/T790M (Homo sapiens, UniProt P00533, DEL746-750/T790M); test: Inhibition of EGFR Exon19Del/T790M biochemical enzymatic activity (HTRF); conditions: EGFR Del19-T790M, 1 mM ATP, 1 h, room temperature, read-out: IC50 (nM) @Del19-T790M
T3 construct: purchased Carna Bio
T3 sequence (P00533 with tags, fused parts or gaps DEL746-750/T790M limits assumed): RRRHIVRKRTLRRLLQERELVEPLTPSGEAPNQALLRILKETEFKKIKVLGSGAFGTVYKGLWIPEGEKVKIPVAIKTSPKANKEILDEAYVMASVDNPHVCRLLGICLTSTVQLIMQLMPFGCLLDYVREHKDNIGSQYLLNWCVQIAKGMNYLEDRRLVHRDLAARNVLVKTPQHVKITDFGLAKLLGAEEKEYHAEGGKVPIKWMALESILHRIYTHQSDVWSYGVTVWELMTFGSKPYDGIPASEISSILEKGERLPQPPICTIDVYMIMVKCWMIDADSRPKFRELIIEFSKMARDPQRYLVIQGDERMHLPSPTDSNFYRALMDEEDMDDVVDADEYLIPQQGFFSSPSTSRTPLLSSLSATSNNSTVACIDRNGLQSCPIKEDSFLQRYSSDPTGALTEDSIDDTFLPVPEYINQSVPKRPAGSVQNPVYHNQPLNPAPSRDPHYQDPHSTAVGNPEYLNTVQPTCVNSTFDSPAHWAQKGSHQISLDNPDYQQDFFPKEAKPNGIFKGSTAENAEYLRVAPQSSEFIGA
Method in brief: as §1

A-431 = test: Cell proliferation GI50, A-431 cells (Table 6); assay type: cell-based
Experimental: [Worded in the source for another cell line; this cell line is reported under the same test.] Ba/F3 cells expressing EGFR mutations were seeded in 384-well plates at 5000 cells/well in RPMI1640 medium containing […]. PC-9 at 500 cells/well was seeded into 384-well plates in RPMI1640 medium with 10% FBS. After overnight incubation, the assay plates were dosed with compounds at a series of concentrations. Alongside dosing the assay plates, the day 0 plate was processed using CellTiter-Glo® Luminescent Cell Viability Assay (Promega) to measure the number of viable cells (G0). The assay plates were further incubated for 72 hours and the number of viable cells (G3) was measured. The percentage of proliferation was calculated as: […]=100×(G3 value of sample well−G0 value)/(G3 value of DMSO control−G0 value). The concentration of compound producing 50% proliferation inhibition (GI50) was further calculated in best-fit curves using XLFit software. N/A=not available.

EGFR wild type = biological target: T4, EGFR wild type (Homo sapiens, UniProt P00533); test: Inhibition of EGFR wild type biochemical enzymatic activity (HTRF); conditions: EGFR WT, 1 mM ATP, 1 h, room temperature, read-out: IC50 (nM) @WT
T4 construct: purchased Carna Bio
Method in brief: as §1

PC-9 = test: Cell proliferation assay, PC-9 cells (CellTiter-Glo, 72 hours); assay type: cell-based; conditions: PC9 cells, CellTiter-Glo, read-out: PC9 GI50
Method in brief: (§2)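 Luminescent viable-cell counts were taken on a day 0 plate at dosing and again at endpoint. Proliferation was calculated as (sample − G0)/(DMSO − G0). Seeding was 5000 Ba/F3 or 500 PC-9 cells per well in RPMI1640, followed by overnight attachment and serial compound dilutions. The GI50 was fitted.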

EGFR L858R/T790M = biological target: T5, EGFR L858R/T790M (Homo sapiens, UniProt P00533, L858R/T790M); test: Inhibition of EGFR L858R/T790M biochemical enzymatic activity (HTRF); conditions: EGFR L858R-T790M, 1 mM ATP, 1 h, room temperature, read-out: IC50 (nM) @L858R-T790M
T5 construct: purchased Carna Bio
T5 sequence (P00533 25-1210 T790M/L858R): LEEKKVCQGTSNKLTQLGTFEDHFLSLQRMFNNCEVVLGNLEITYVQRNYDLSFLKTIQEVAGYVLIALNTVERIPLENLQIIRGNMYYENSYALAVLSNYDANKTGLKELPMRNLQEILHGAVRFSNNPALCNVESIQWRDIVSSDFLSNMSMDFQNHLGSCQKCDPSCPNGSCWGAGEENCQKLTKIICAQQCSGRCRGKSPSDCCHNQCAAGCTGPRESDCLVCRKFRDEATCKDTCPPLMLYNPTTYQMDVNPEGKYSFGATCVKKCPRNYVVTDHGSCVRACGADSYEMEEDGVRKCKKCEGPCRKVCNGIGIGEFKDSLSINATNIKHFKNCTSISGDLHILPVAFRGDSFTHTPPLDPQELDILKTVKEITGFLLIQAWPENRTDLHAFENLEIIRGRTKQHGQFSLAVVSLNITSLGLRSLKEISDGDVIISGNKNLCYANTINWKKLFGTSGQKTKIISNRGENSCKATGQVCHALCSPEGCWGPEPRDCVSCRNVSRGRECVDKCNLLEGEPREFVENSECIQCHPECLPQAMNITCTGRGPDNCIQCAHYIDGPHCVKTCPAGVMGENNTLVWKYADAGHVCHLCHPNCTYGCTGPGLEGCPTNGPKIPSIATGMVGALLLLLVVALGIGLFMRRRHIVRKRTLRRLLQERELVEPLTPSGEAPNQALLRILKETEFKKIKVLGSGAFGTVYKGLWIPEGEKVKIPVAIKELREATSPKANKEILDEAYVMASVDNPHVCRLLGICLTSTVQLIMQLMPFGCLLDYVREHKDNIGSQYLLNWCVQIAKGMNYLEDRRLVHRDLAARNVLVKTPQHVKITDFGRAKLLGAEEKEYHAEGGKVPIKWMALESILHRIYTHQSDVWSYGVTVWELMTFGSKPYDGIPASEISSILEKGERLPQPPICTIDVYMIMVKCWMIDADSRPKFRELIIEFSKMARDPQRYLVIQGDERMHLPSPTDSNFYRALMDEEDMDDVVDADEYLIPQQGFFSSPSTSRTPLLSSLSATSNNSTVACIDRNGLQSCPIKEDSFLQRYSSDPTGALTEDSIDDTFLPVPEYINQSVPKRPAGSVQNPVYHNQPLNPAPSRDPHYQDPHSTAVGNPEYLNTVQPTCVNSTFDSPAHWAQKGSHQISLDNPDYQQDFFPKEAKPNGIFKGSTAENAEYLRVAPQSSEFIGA
Method in brief: as §1

[1] = system: Ba/F3 cells expressing EGFR mutations; test: Cell proliferation assay, Ba/F3 cells expressing EGFR mutations (CellTiter-Glo, 72 hours); assay type: cell-based; conditions: CellTiter-Glo
Method in brief: as §2

EGFR (C797S L858R) = biological target: T6, EGFR (C797S L858R) (Homo sapiens, UniProt P00533, C797S/L858R); test: Inhibition of EGFR (C797S L858R) biochemical enzymatic activity (HTRF); conditions: EGFR L858-C797S, 1 mM ATP, 1 h, room temperature, read-out: IC50 (nM) @L858-C797S
T6 construct: purchased signalchem
Method in brief: as §1

[2] = biological target: T7, EGFR[T790M/C797S/d746-750] (Homo sapiens, UniProt P00533, C797S/DEL746-750/T790M); test: Inhibition of EGFR[T790M/C797S/d746-750] biochemical enzymatic activity (HTRF); conditions: EGFR T790M-C797S-Del19, 1 mM ATP, 1 h, room temperature, read-out: IC50 (nM) @T790M - C797S - Del19
T7 construct: purchased Carna Bio
T7 sequence (P00533 with tags, fused parts or gaps DEL746-750/T790M/C797S limits assumed): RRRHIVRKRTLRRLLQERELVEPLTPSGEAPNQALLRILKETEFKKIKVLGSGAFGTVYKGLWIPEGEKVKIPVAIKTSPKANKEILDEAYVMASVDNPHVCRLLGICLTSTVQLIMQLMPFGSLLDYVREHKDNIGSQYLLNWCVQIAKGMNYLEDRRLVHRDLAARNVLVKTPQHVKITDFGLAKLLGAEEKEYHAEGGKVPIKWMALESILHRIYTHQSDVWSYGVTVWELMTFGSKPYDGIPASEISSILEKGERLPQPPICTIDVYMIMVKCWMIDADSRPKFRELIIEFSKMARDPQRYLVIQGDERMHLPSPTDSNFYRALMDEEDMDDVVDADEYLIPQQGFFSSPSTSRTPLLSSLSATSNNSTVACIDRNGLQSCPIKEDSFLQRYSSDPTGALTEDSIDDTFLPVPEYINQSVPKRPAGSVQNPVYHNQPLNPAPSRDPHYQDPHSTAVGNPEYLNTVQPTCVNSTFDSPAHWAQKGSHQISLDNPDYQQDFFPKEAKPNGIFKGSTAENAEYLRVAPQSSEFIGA
Method in brief: as §1

EGFR Exon19Del = biological target: T8, EGFR Exon19Del (Homo sapiens, UniProt P00533, DEL746-750); test: Inhibition of EGFR Exon19Del biochemical enzymatic activity (HTRF); conditions: EGFR Del19, 1 mM ATP, 1 h, room temperature, read-out: IC50 @Del19
T8 construct: purchased Carna Bio
T8 sequence (P00533 with tags, fused parts or gaps DEL746-750 limits assumed): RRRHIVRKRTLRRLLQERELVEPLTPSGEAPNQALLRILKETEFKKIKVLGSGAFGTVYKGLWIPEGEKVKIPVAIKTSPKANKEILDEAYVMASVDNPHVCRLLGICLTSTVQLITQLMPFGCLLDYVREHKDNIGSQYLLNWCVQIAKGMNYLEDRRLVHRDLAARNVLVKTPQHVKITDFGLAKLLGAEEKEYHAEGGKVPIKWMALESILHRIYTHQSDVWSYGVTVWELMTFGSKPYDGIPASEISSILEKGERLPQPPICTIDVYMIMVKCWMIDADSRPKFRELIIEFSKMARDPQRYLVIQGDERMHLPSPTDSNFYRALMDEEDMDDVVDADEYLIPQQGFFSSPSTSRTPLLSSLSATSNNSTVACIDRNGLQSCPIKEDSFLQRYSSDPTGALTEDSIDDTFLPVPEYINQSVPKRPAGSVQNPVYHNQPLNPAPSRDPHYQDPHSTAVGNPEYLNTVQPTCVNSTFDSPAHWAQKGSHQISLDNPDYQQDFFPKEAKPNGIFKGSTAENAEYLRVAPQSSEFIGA
Method in brief: as §1

EGFR (d746-750 C797S) = biological target: T9, EGFR (d746-750 C797S) (Homo sapiens, UniProt P00533, C797S/DEL746-750); test: Inhibition of EGFR (d746-750 C797S) biochemical enzymatic activity (HTRF); conditions: EGFR Del19-C797S, 1 mM ATP, 1 h, room temperature, read-out: IC50 (nM) @Del19-C797S
T9 construct: purchased signalchem
T9 sequence (P00533 with tags, fused parts or gaps DEL746-750/C797S limits assumed): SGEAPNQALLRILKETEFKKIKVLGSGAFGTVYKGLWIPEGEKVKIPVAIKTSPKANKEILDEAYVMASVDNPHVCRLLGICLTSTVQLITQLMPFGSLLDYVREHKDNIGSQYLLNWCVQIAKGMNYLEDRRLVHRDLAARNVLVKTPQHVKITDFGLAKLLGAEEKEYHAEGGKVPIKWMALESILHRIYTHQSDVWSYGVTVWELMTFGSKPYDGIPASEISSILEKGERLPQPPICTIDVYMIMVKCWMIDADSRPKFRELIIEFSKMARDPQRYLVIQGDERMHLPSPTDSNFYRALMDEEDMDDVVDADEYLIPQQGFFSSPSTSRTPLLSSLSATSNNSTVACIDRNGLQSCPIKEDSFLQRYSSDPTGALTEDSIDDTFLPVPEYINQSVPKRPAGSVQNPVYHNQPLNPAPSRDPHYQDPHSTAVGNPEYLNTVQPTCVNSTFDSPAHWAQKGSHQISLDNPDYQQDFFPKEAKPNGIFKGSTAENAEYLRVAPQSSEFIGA
Method in brief: as §1

[3] = BaF3 cells, EGFR DEL19-C797S, read-out: DEL19-C797S/BaF3 GI50
[4] = BaF3 cells, EGFR DEL19-T790-C797S, read-out: DEL19-T790-C797S/BaF3 GI50
[5] = BaF3 cells, EGFR L858R, read-out: L858R/BaF3 GI50
[6] = BaF3 cells, EGFR L858R-C797S, read-out: L858R-C797S/BaF3 GI50
[7] = BaF3 cells, EGFR L858R-T790-C797S, read-out: L858R-T790-C797S/BaF3 GI50
[8] = BaF3 cells, EGFR L858R-T790M, read-out: L858R-T790M/BaF3 GI50
[9] = EGFR DEL19-T790M, read-out: DEL19-T790M GI50
[10] = Homo sapiens, A-431, A-431 cells
[11] = Mus musculus, BaF3, 72 h, BaF3 cells, EGFR DEL19-C797S, read-out: DEL19-C797S/BaF3 GI50
[12] = Mus musculus, BaF3, 72 h, BaF3 cells, EGFR DEL19-T790-C797S, read-out: DEL19-T790-C797S/BaF3 GI50
[13] = Mus musculus, BaF3, 72 h, BaF3 cells, EGFR L858R, read-out: L858R/BaF3 GI50
[14] = Mus musculus, BaF3, 72 h, BaF3 cells, EGFR L858R-C797S, read-out: L858R-C797S/BaF3 GI50
[15] = Mus musculus, BaF3, 72 h, BaF3 cells, EGFR L858R-T790-C797S, read-out: L858R-T790-C797S/BaF3 GI50
[16] = Mus musculus, BaF3, 72 h, BaF3 cells, EGFR L858R-T790M, read-out: L858R-T790M/BaF3 GI50
[17] = Mus musculus, BaF3, 72 h, EGFR DEL19-T790M, read-out: DEL19-T790M GI50

T1 sequence (P00533 25-1210 T790M/C797S/L858R): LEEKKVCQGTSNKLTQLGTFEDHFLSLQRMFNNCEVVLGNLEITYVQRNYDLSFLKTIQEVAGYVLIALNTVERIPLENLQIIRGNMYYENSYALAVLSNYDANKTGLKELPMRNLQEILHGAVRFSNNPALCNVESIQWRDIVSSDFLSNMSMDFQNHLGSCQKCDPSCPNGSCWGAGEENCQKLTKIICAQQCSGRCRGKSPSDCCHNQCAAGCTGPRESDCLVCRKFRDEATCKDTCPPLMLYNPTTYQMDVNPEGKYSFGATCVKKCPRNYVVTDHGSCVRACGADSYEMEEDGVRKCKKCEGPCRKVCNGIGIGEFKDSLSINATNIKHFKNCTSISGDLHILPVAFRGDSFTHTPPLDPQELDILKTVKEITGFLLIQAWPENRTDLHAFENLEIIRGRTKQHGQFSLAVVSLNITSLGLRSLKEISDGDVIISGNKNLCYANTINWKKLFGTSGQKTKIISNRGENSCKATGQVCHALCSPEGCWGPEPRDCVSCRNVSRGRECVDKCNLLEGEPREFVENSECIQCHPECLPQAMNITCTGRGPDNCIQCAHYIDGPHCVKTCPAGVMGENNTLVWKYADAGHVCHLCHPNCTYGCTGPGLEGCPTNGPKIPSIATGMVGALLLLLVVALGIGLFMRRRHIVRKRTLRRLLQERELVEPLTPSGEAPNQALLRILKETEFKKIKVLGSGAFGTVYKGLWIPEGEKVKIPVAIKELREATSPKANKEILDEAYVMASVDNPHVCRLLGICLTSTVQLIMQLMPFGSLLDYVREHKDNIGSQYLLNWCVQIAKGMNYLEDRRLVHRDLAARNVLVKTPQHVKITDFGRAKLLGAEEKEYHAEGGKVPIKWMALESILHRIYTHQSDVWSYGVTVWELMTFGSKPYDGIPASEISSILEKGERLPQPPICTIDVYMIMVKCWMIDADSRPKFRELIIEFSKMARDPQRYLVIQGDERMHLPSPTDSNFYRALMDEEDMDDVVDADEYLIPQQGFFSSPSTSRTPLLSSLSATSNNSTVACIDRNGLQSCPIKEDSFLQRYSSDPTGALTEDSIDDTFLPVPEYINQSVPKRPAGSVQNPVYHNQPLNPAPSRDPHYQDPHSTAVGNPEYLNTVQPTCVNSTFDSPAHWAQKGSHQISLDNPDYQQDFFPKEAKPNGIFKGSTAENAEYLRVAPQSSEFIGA

Structure (SMILES) | GI50 (PC-9; Homo sapiens, PC-9, 72 h) [nM] | GI50 (A-431; [10]) [nM] | GI50 [1, 11] [nM] | GI50 [1, 12] [nM] | GI50 [1, 13] [nM] | GI50 [1, 14] [nM] | GI50 [1, 15] [nM] | GI50 [1, 16] [nM] | GI50 [1, 17] [nM] | other results
CCC1CCCOc2c(cnn2C)-c2cc(cn(C)c2=O)C(=O)Nc2nc3ccc(N4CCN(C)CC4)cc3n2C1 (single isomer, unassigned) [Example A16A, 11-Ethyl-5,26-dimethyl-16-(4-methylpiperazin-1-yl)-7-oxa-4,5,13,20,22,26-hexaazapentacyclo[22.3.1.0^{2,6}.0^{13,21}.0^{14,19}]octacosa-1(28),2(6),3,14,16,18,20,24-octaene-23,27-dione] | 139 |  |  |  |  |  |  |  |  | IC50 (EGFR[T790M/C797S/L858R]): > 5000 nM; IC50 (EGFR L858R): > 5000 nM; IC50 (EGFR Exon19Del/T790M): 127 nM; GI50 (A-431; A-431 cells): 95 nM; IC50 (EGFR wild type): > 5000 nM; IC50 (EGFR L858R/T790M): > 5000 nM; GI50 [1, 3]: 73 nM; GI50 [1, 4]: 122 nM; GI50 [1, 5]: 182 nM; GI50 [1, 6]: 113 nM; GI50 [1, 7]: 161 nM; GI50 [1, 8]: 165 nM; GI50 [1, 9]: 117 nM; IC50 (EGFR (C797S L858R)): 1350 nM; IC50 [2]: 115 nM; IC50 (EGFR Exon19Del): 150 nM; IC50 (EGFR (d746-750 C797S)): 152 nM
CN(C)CCN(C)c1ccc2nc3n(c2c1)CCN(CC(F)F)CCOc1c(cnn1C)-c1cc(cn(C)c1=O)C(=O)N3 [Example A4, 10-(2,2-Difluoroethyl)-16-{[2-(dimethylamino)ethyl](methyl)amino}-5,26-dimethyl-7-oxa-4,5,10,13,20,22,26-heptaazapentacyclo[22.3.1.0^{2,6}.0^{13,21}.0^{14,19}]octacosa-1(28),2(6),3,14,16,18,20,24-octaene-23,27-dione] | 183 | 2540 | 77 | 811 | 56 | 63 | 76 | 585 | 788 | 
CCN1CCOc2c(cnn2C)-c2cc(cn(C)c2=O)C(=O)Nc2nc3ccccc3n2C(C)(C)C1 [Example A7, 10-Ethyl-5,12,12,26-tetramethyl-7-oxa-4,5,10,13,20,22,26-heptaazapentacyclo[22.3.1.0^{2,6}.0^{13,21}.0^{14,19}]octacosa-1(28),2(6),3,14,16,18,20,24-octaene-23,27-dione] | 424 | 1410 | 279 | 830 | 1050 | 1160 | 976 | 803 | 768 | 
Cn1ncc2c1OCCN1CCC(C)(C1)n1c(nc3ccc(N4CCOCC4)cc31)NC(=O)c1cc-2c(=O)n(C)c1 (stereo not shown) [Example A11, 5,13,27-trimethyl-17-(morpholin-4-yl)-7-oxa-4,5,10,14,21,23,27-heptaazahexacyclo[23.3.1.1^{10,13}.0^{2,6}.0^{14,22}.0^{15,20}]triaconta-1(29),2(6),3,15,17,19,21,25-octaene-24,28-dione] | 903 | 2610 | 666 | 1750 | 2690 | 2250 | 2150 | 1720 | 1790 | 
C[C@@H]1CCCOc2c(cnn2C)-c2cc(cn(C)c2=O)C(=O)Nc2nc3ccc(N4CC5CN(C)CC5C4)cc3n2C1 (stereo partly shown) [Example A30] | 17 | 719 | 2.3 | 3.6 | 13 | 11 | 13 | 24 | 15 | 
C[C@@H]1CCCOc2c(cnn2C)-c2cc(cn(C)c2=O)C(=O)Nc2nc3ccc(N4CC5CC4CN5C)cc3n2C1 (stereo partly shown) [Example A31] | 35 | 790 | 2.3 | 3.4 | 25 | 10 | 13 | 30 |  | 
C[C@@H]1CCCOc2c(cnn2C)-c2cc(cn(C)c2=O)C(=O)Nc2nc3ccc(N4CC5CCN(C)C5C4)cc3n2C1 (stereo partly shown) [Example A32] | 7.3 | 248 | 0.43 | 1.5 | 3 | 2.8 | 2.9 | 9.1 | 3.8 | 
C[C@@H]1CCCOc2c(cnn2C)-c2cc(cn(C)c2=O)C(=O)Nc2nc3ccc(N4CCC5(CCN(C)C5)C4)cc3n2C1 (stereo partly shown) [Example A34] | 9.1 | 587 | 1.1 | 1.3 | 4.6 | 4.2 | 8.9 | 9.8 | 5 | 
C[C@@H]1CCCOc2c(cnn2C)-c2cc(cn(C)c2=O)C(=O)Nc2nc3ccc(N4CC(N5CCOCC5)C4)cc3n2C1 [Example A45] | 15 | 245 | 5.1 | 16 | 8.6 | 14 | 9.3 | 29 | 20 | 
CN1CCN(c2ccc3c(c2)nc2n3C34CCC(CN(CCOc5c(cnn5C)-c5cc(cn(C)c5=O)C(=O)N2)C3)C4)CC1 (stereo not shown) [Example A60, 15,21-dimethyl-6-(4-methylpiperazin-1-yl)-23-oxa-2,9,11,15,20,21,26-heptaazaheptacyclo[24.4.1.1^{1,28}.1^{13,17}.0^{2,10}.0^{3,8}.0^{18,22}]tritriaconta-3,5,7,9,13,17(33),18(22),19-octaene-12,16-dione] |  |  |  |  |  |  |  |  |  | IC50 (EGFR[T790M/C797S/L858R]): 157 nM; IC50 (EGFR L858R): 917 nM; IC50 (EGFR Exon19Del/T790M): 8.6 nM; GI50 (A-431; A-431 cells): 4110 nM; GI50 (PC-9): 146 nM; IC50 (EGFR L858R/T790M): 240 nM; GI50 [1, 3]: 19 nM; GI50 [1, 4]: 40 nM; GI50 [1, 5]: 87 nM; GI50 [1, 6]: 120 nM; GI50 [1, 7]: 86 nM; GI50 [1, 8]: 457 nM; GI50 [1, 9]: 63 nM; IC50 (EGFR (C797S L858R)): 619 nM; IC50 [2]: 9.4 nM; IC50 (EGFR Exon19Del): 23 nM; IC50 (EGFR (d746-750 C797S)): 18 nM
